Test results reported in ChEMBL document CHEMBL5360661, “Structure-Activity Relationship Study of 1H-Pyrrole-3-carbonitrile Derivatives as STING Receptor Agonists” (ACS Med Chem Lett, 2023).
pEC50, pIC50: −log10 of the molar value. Blank lines part the entries; values can stand above or below the compound they belong to. The source made the active and inactive calls. The calls are words filed in the database; no cut-off is given here.

Key:
Homo sapiens [1] = species: Homo sapiens; test: (§1) Binding affinity to recombinant human STING R232H variant C-terminal domain (139 to 378 residues) expressed in Escherichia coli BL21 (DE3) cells assessed as thermal stabilization by measuring change in melting temperature at 50 uM incubated at 25 to 95 degreeC for 45 mins by SYPRO orange dye based fluorescence analysis
[2] = system: Stimulator of interferon genes protein (Homo sapiens), Q86WV6 [UNDEFINED MUTATION]; test: as §1, with “recombinant wildtype” for “recombinant”, “R232” for “R232H”
Sequence of Stimulator of interferon genes protein (Homo sapiens), Q86WV6 [UNDEFINED MUTATION] (Q86WV6 whole entry, looked up, stated change not applied, the tested form may be a part): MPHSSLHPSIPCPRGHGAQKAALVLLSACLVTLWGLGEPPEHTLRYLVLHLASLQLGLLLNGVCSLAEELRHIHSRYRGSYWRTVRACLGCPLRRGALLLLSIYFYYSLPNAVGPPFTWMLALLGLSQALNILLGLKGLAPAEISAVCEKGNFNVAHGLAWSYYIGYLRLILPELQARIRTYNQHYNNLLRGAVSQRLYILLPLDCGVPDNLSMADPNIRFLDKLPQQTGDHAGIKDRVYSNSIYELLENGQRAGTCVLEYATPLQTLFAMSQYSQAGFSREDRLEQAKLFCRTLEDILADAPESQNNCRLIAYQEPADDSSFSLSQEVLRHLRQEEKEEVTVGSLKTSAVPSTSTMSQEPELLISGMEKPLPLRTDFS

[3] = Competitive inhibition of 5-FAM labelled diABZI binding to recombinant human STING R293Q variant C-terminal domain (139 to 378 residues) expressed in Escherichia coli BL21 (DE3) cells incubated for 10 mins by fluorescence polarization assay
[4] = target: T1, Stimulator of interferon genes protein (Homo sapiens, UniProt Q86WV6); test: Competitive inhibition of 5-FAM labelled diABZI binding to recombinant wildtype human STING R232 variant C-terminal domain (139 to 378 residues) expressed in Escherichia coli BL21 (DE3) cells incubated for 10 mins by fluorescence polarization assay
Target sequence in this assay (Q86WV6 whole entry, looked up, stated change not applied, the tested form may be a part): as above

[5] = Competitive inhibition of 5-FAM labelled diABZI binding to recombinant human STING G230A and R293Q variant C-terminal domain (139 to 378 residues) expressed in Escherichia coli BL21 (DE3) cells incubated for 10 mins by fluorescence polarization assay
[6] = Competitive inhibition of 5-FAM labelled diABZI binding to recombinant human STING R232H variant C-terminal domain (139 to 378 residues) expressed in Escherichia coli BL21 (DE3) cells incubated for 10 mins by fluorescence polarization assay
Homo sapiens [7] = species: Homo sapiens; test: as §1, with “G230A and R293Q” for “R232H”
[8] = target: T2, Stimulator of interferon genes protein (Mus musculus, UniProt Q3TBT3); test: Competitive inhibition of 5-FAM labelled diABZI binding to recombinant 6-his tagged mouse STING C-terminal domain (144 to 378 residues) expressed in Escherichia coli BL21 (DE3) cells incubated for 10 mins by fluorescence polarization assay
T2 sequence (Q3TBT3 whole entry): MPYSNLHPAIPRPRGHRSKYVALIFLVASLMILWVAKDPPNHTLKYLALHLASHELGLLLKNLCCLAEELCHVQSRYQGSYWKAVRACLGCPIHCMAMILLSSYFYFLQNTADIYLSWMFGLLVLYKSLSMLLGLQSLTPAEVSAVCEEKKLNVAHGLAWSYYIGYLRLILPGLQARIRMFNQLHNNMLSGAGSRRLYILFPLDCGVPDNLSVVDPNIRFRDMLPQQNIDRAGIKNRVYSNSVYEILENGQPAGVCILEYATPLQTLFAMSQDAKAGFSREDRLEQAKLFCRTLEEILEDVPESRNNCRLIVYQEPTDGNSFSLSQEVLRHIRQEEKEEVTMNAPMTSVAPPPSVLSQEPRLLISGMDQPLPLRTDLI

[9] = target: T1, Stimulator of interferon genes protein; test: Agonist activity at STING in PMA-differentiated wildtype human THP1-Blue ISG cells harboring IRF-inducible SEAP reporter construct incubated for 24 hrs by QUANTI-Blue assay; type: cell-based
Target sequence in this assay (Q86WV6 whole entry, the tested form may be a part): as the sequence (Q86WV6 whole entry, looked up, stated change not applied, the tested form may be a part) above

Homo sapiens [10] = species: Homo sapiens; test: as §1, with “R293Q” for “R232H”
[11] = target: T3, Stimulator of interferon genes protein (Mus musculus) (UniProt Q3TBT3); test: as §1, with “6-His tagged mouse” for “human”, “STING” for “STING R232H variant”, “(144” for “(139”
T3 sequence (whole entry): T2 sequence (Q3TBT3 whole entry)

[12] = target: T1, Stimulator of interferon genes protein; test: Activation of cGAS-STING pathway in wildtype human THP1-Blue ISG cells assessed as induction of STAT3 phosphorylation at Tyr705 residue at 15 uM incubated upto 6 hrs by Western blot analysis; type: cell-based; details: filed as activator
Target sequence in this assay (Q86WV6 whole entry, the tested form may be a part): as the sequence (Q86WV6 whole entry, looked up, stated change not applied, the tested form may be a part) above

[13] = target: T1, Stimulator of interferon genes protein; test: Activation of cGAS-STING pathway in human THP-1 cells assessed as stimulation of IL6 gene expression at 15 uM by RT-qPCR analysis; type: cell-based; details: filed as activator, time <= 8.0 hrs
Target sequence in this assay (Q86WV6 whole entry, the tested form may be a part): as the sequence (Q86WV6 whole entry, looked up, stated change not applied, the tested form may be a part) above

[14] = target: T1, Stimulator of interferon genes protein; test: Activation of cGAS-STING pathway in wildtype human THP1-Blue ISG cells assessed as induction of IRF3 phosphorylation at Ser396 residue at 15 uM incubated upto 6 hrs by Western blot analysis; type: cell-based; details: filed as activator
Target sequence in this assay (Q86WV6 whole entry, the tested form may be a part): as the sequence (Q86WV6 whole entry, looked up, stated change not applied, the tested form may be a part) above

[15] = target: T1, Stimulator of interferon genes protein; test: Activation of cGAS-STING pathway in human THP1-Dual KO-STING cells assessed as induction of TBK1 phosphorylation at Ser172 residue at 15 uM incubated for 1 hrs by Western blot analysis; type: cell-based
Target sequence in this assay (Q86WV6 whole entry, the tested form may be a part): as the sequence (Q86WV6 whole entry, looked up, stated change not applied, the tested form may be a part) above

[16] = target: T1, Stimulator of interferon genes protein; test: Activation of cGAS-STING pathway in human THP1-Dual KO-cGAS cells assessed as induction of TBK1 phosphorylation at Ser172 residue at 15 uM incubated for 1 hrs by Western blot analysis; type: cell-based; details: filed as activator
Target sequence in this assay (Q86WV6 whole entry, the tested form may be a part): as the sequence (Q86WV6 whole entry, looked up, stated change not applied, the tested form may be a part) above

[17] = target: T1, Stimulator of interferon genes protein; test: Activation of cGAS-STING pathway in human THP1-Dual KO-cGAS cells assessed as induction of STAT3 phosphorylation at Tyr705 residue at 15 uM incubated for 1 hrs by Western blot analysis; type: cell-based; details: filed as activator
[18] = target: T1, Stimulator of interferon genes protein; test: Activation of cGAS-STING pathway in human THP1-Dual KO-STING cells assessed as induction of IRF3 phosphorylation at Ser396 residue at 15 uM incubated for 1 hrs by Western blot analysis; type: cell-based
[19] = target: T1, Stimulator of interferon genes protein; test: Activation of cGAS-STING pathway in wildtype human THP1-Blue ISG cells assessed as induction of p65 phosphorylation at Ser536 residue at 15 uM incubated upto 6 hrs by Western blot analysis; type: cell-based; details: filed as activator
[20] = target: T1, Stimulator of interferon genes protein; test: Activation of cGAS-STING pathway in human THP-1 cells assessed as stimulation of IFNB1 gene expression at 15 uM by RT-qPCR analysis; type: cell-based; details: filed as activator, time <= 8.0 hrs
[21] = target: T1, Stimulator of interferon genes protein; test: Activation of cGAS-STING pathway in human THP1-Dual KO-STING cells assessed as induction of STAT3 phosphorylation at Tyr705 residue at 15 uM incubated for 1 hrs by Western blot analysis; type: cell-based
[22] = target: T1, Stimulator of interferon genes protein; test: Activation of cGAS-STING pathway in wildtype human THP1-Blue ISG cells assessed as induction of STING phosphorylation at Ser366 residue at 15 uM incubated upto 6 hrs by Western blot analysis; type: cell-based; details: filed as activator
[23] = target: T1, Stimulator of interferon genes protein; test: Activation of cGAS-STING pathway in human THP1-Dual KO-cGAS cells assessed as induction of IRF3 phosphorylation at Ser396 residue at 15 uM incubated for 1 hrs by Western blot analysis; type: cell-based; details: filed as activator
[24] = target: T1, Stimulator of interferon genes protein; test: Activation of cGAS-STING pathway in human THP1-Dual KO-STING cells assessed as induction of STING phosphorylation at Ser366 residue at 15 uM incubated for 1 hrs by Western blot analysis; type: cell-based
[25] = target: T1, Stimulator of interferon genes protein; test: Activation of cGAS-STING pathway in human THP1-Dual KO-cGAS cells assessed as induction of p65 phosphorylation at Ser536 residue at 15 uM incubated for 1 hrs by Western blot analysis; type: cell-based; details: filed as activator
[26] = target: T1, Stimulator of interferon genes protein; test: Activation of cGAS-STING pathway in wildtype human THP1-Blue ISG cells assessed as induction of TBK1 phosphorylation at Ser172 residue at 15 uM incubated upto 6 hrs by Western blot analysis; type: cell-based; details: filed as activator
[27] = target: T1, Stimulator of interferon genes protein; test: Activation of cGAS-STING pathway in human THP-1 cells assessed as stimulation of CXCL10 gene expression at 15 uM by RT-qPCR analysis; type: cell-based; details: filed as activator, time <= 8.0 hrs
[28] = target: T1, Stimulator of interferon genes protein; test: Activation of cGAS-STING pathway in human THP1-Dual KO-cGAS cells assessed as induction of STING phosphorylation at Ser366 residue at 15 uM incubated for 1 hrs by Western blot analysis; type: cell-based; details: filed as activator
[29] = target: T1, Stimulator of interferon genes protein; test: Activation of cGAS-STING pathway in human THP1-Dual KO-STING cells assessed as induction of p65 phosphorylation at Ser536 residue at 15 uM incubated for 1 hrs by Western blot analysis; type: cell-based

Compound: N#Cc1ccn(-c2ccc(C(=O)Nc3cc(F)c(F)cc3C(=O)O)nn2)c1
ΔTm (Homo sapiens [1]): 3.5 °C

Compound: Cc1cc(NC(=O)c2ccc(-n3ccc(C#N)c3)nn2)c(C(=O)O)cc1F
pEC50 [9]: 4.34
ΔTm (Homo sapiens [1]): 1.5 °C

Compound: CCc1cc(C(=O)O)c(NC(=O)c2ccc(-n3ccc(C#N)c3)nn2)cc1F
pEC50 [9]: 4.46
ΔTm (Homo sapiens [1]): 0.5 °C

Compound: N#Cc1ccn(-c2ccc(C(=O)Nc3ccc(F)cc3C(=O)O)nn2)c1
pEC50 [9]: < 4.00
ΔTm (Homo sapiens [1]): 0.5 °C

Compound: O=C(Nc1cc(F)c(F)cc1C(=O)O)c1ccc(-n2ccnc2)nn1
pIC50 [3]: 5.26
pIC50 [5]: 6.14
pIC50 [6]: 5.31
ΔTm (Homo sapiens [7]): 14 °C
pIC50 [8]: 5.66
ΔTm (Homo sapiens [10]): 7.5 °C
ΔTm (Homo sapiens [1]): 8.5 °C
ΔTm [11]: 10 °C

Compound: N#Cc1ccn(-c2ccc(C(=O)Nc3cc(F)c(Cl)cc3C(=O)O)nn2)c1
pEC50 [9]: 4.38
ΔTm (Homo sapiens [1]): 1.5 °C

Compound: N#Cc1ccn(-c2ccc(C(=O)Nc3cc(C4CC4)c(F)cc3C(=O)O)nn2)c1
pEC50 [9]: 4.53
ΔTm (Homo sapiens [1]): 1 °C

Further compounds by rising pEC50 [9], results first:

pEC50 [9]: 5.29
Compound: N#Cc1ccn(-c2ccc(C(=O)Nc3cc(Cl)c(F)cc3C(=O)O)nn2)c1
ΔTm (Homo sapiens [1]): 6.5 °C

pEC50 [9]: 5.29
Compound: N#Cc1ccn(-c2ccc(C(=O)Nc3cc(Cl)c(Br)cc3C(=O)O)nn2)c1
ΔTm (Homo sapiens [1]): 6.5 °C

ΔTm [2]: 6 °C
pIC50 [3]: 5.59
pIC50 [4]: 5.62
pIC50 [5]: 6.12
pIC50 [6]: 5.56
pIC50 [8]: 5.34
pEC50 [9]: 5.52
ΔTm [11]: 6.5 °C
Compound: N#Cc1ccn(-c2ccc(C(=O)Nc3cc(Cl)c(Cl)cc3C(=O)O)nn2)c1
ΔTm (Homo sapiens [7]): 13.5 °C
ΔTm (Homo sapiens [10]): 7.5 °C
ΔTm (Homo sapiens [1]): 7.5 °C

ΔTm [2]: 6 °C
pIC50 [3]: 5.43
pIC50 [4]: 5.48
pIC50 [5]: 6.04
pIC50 [6]: 5.45
Activity [12]: Active
Activity [13]: Active
Activity [14]: Active
Activity [15]: inactive
Activity [16]: Active
pIC50 [8]: 5.33
Activity [17]: Active
Activity [18]: inactive
Activity [19]: Active
Activity [20]: Active
Activity [21]: inactive
Activity [22]: Active
pEC50 [9]: 5.92
Activity [23]: Active
Activity [24]: inactive
Activity [25]: Active
Activity [26]: Active
Activity [27]: Active
Activity [28]: Active
ΔTm [11]: 7.5 °C
Activity [29]: inactive
Compound: C#Cc1cc(NC(=O)c2ccc(-n3ccc(C#N)c3)nn2)c(C(=O)O)cc1F
ΔTm (Homo sapiens [7]): 13 °C
ΔTm (Homo sapiens [10]): 7.5 °C
ΔTm (Homo sapiens [1]): 8 °C
